Results taken from the NIST ThermoML archive (doi:10.1021/acs.jced.8b00509).
Several values for one entry are separate records, joined by “and”; a condition that tells them apart may be missing. Identical values can stand only once. ± gives the expanded uncertainty stated by the source.

What was measured:
[1] = 100 kPa, Liquid; for viscosity: Capillary tube (Ostwald / Ubbelohde) method
[2] = mn = molality of the nth substance listed, in mol/kg; details: 100 kPa, Liquid; for viscosity: Capillary tube (Ostwald / Ubbelohde) method; for speed of sound: Frequency=3 MHz, Single path-length method; for mass density: Vibrating tube method

O [water]
[1]
Details | viscosity [mPa·s]
293.15 K | 1.002 ± 0.027
298.15 K | 0.89 ± 0.027
303.15 K | 0.797 ± 0.026
308.15 K | 0.719 ± 0.026
313.15 K | 0.652 ± 0.026

Details | speed of sound [m/s]
[1], 313.15 K, Frequency=3 MHz, Single path-length method | 1528.8 ± 6

CN(C)C(=N)NC(=N)N.Cl [N,N-dimethylimidodicarbonimidic diamide hydrochloride] + O
[2]
Details | mass density, m1 = 0.005 [kg/m3] | mass density, m1 = 0.01 [kg/m3] | mass density, m1 = 0.05 [kg/m3] | speed of sound, m1 = 0.005 [m/s] | speed of sound, m1 = 0.01 [m/s] | speed of sound, m1 = 0.05 [m/s] | viscosity, m1 = 0.005 [mPa·s] | viscosity, m1 = 0.01 [mPa·s] | viscosity, m1 = 0.05
293.15 K | 998.35 ± 0.45 | 998.57 ± 0.45 | 999 ± 0.45 | 1483 ± 6 | 1483.3 ± 6 | 1483.7 ± 6 | 1.006 ± 0.027 | 1.01 ± 0.027 | 1.014 ± 0.027 mPa·s
298.15 K | 997.2 ± 0.45 | 997.4 ± 0.45 | 997.91 ± 0.45 | 1497 ± 6 | 1497.3 ± 6 | 1497.7 ± 6 | 0.891 ± 0.027 | 0.893 ± 0.027 | 0.895 ± 0.027 mPa·s and 0.8947 ± 0.026 mPa·s
303.15 K | 995.72 ± 0.45 | 995.99 ± 0.45 | 996.53 ± 0.45 | 1509.4 ± 6 | 1509.7 ± 6 | 1510 ± 6 | 0.799 ± 0.026 | 0.801 ± 0.026 | 0.804 ± 0.026 mPa·s
308.15 K | 994.19 ± 0.45 | 994.37 ± 0.45 | 994.92 ± 0.45 | 1520 ± 6 | 1520.3 ± 6 | 1520.7 ± 6 | 0.722 ± 0.026 | 0.725 ± 0.026 | 0.728 ± 0.026 mPa·s and 0.7276 ± 0.026 mPa·s
313.15 K | 992.38 ± 0.45 | 992.54 ± 0.45 | 993.1 ± 0.45 | 1529.1 ± 6 | 1529.4 ± 6 | 1529.7 ± 6 | 0.655 ± 0.026 | 0.657 ± 0.026 | 0.659 ± 0.026 mPa·s
